Laboratory results: patent US5852004A, “Drug and pharmaceutical composition for the treatment of lesions of the digestive tract” (Societe Valbiofrance, priority 1994, dated 1998)
Like-named read-outs stand apart in the source and are kept apart here. Values belong to the molecule of their own block, whether it stands above or below them.

Experiments:
beta TGF = biological target: T1, beta TGF (Homo sapiens, UniProt P01137); assay: protection of beta TGF against trypsin, read by inhibition of tritiated thymidine incorporation in CCL64 cells; type: cell-based; conditions: 37° C. 10 min
T1 construct: from tissue; host or cells: human blood platelets
Method: In order to measure the capacity of certain CMDBSs to interact with members of the beta TGF family and, by means of this interaction, to protect the beta TGFS, a grading test was devised.
The beta 1 TFG is prepared from human blood platelets according to a protocol described in numerous publications (for example Growth factors and their receptors, 1992, vol 1 pp 419-472, written by A. Roberts and M. Sporn, edited by A. Roberts and M. Sporn, and published by Springer Verlag Berlin) and is commonly used by persons of ordinary skill in the art. The beta TGF biological activity test used in this example is that of the inhibition of CCL64 cells (from the American Tissue Culture Collection). This inhibition is measured by the ability of the beta TGF to inhibit the incorporation of tritiated thymidine in a dose dependent manner in these CCL64 cells stimulated by the FGF or by fetal calf serum according to the protocol described by Van Zolen in Progress in Growth Factor Research, 1990, 2, pp 131 to 152. Two doses of beta TGF are used, one corresponding to the 50% inhibition capacity of the incorporation of tritiated thymidine (defined as the inhibiting activity unit) and the other corresponding to the 100% inhibition capacity.
The final volume of the incubated solution is adjusted to 1 ml and incubation is carried out at 37° C. for a varying length of time (10 minutes in the example described (Table 1)).
20 μl samples […] are taken from each of the incubation reactions and added to CCL64 cells cultivated in 24-well plates, each well containing one milliliter of culture medium according to the aforementioned protocol described by E. Zohlen. In these conditions, the final concentration of beta TGF per well is 1 ng/ml.
The incubation mixture contained 50 ng of beta TGF (in 0.1% bovine serum albumin) and trypsin (500 μg). Mesoglycan or sulodexide or dextran sulfate or dextran or sucrase are used at the dose of 5000 μg.
The beta TGF biological activity is measured as described above after a dilution of 50 times and by using CCL64 cells.

FGF 1 = assay: potentialization of FGF1 biological activity, tritiated thymidine incorporation in CCL39 cells; type: cell-based
Source text: (§1) The cells used in this example are CCL39 cells from the American Tissue Culture Collection. The conditions concerning culture and the measurement test of FGF biological activity are the same as those described in the publication by Tardieu and coll. in the Journal of Cellular Physiology, 1992. The FGF growth factors used are the FGF 1 and FGF 2 recombinant forms.
(§2) In these experiments, the FGF 1 or 2 is used at a dose corresponding to the effective dose (indicated ED50) in order to induce a stimulation of the biological activity of 50% of the dose inducing the maximum stimulation. The biological activity is measured by the ability to induce an increase of the incorporation of tritiated thymidine in the cells according to protocols extensively described in numerous publications such as the previously mentioned publication by Tardieu et coll. and also in French Patent 2 644 066.
(§3) In addition to this ability to potentialize the biological activity of the FGFs, the HBGFPPs protect the FGFs against thermal degradations and the inactivation induced by the proteolytic action of trypsin (FIGS. 4 and 5). Similarly, these HBGFPPs protect FGF1 and 2 against an inactivation induced by the proteolytic activity of trypsin (FIGS. 5A and 5B).

FGF 2 = assay: potentialization of FGF2 biological activity, tritiated thymidine incorporation in CCL39 cells; type: cell-based
Source text: as §1, §2, §3

FGF1 = assay: protection of FGF1 against thermal degradation; type: cell-based; conditions: FIG. 3; 20° C. and 37° C., 1, 7, 15, 30 days
Method: (§4) (a) and 37° C. (b) for 1, 7, 15, 30 days. The measurement of the biological activity presented in abscissa corresponds to the stimulation unit values (ED50) of the incorporation of tritiated thymidine in CCL39 cells.

FGF2 = assay: protection of FGF2 against thermal degradation; type: cell-based; conditions: FIG. 4; 20° C. and 37° C., 1, 7, 15, 30 days
Method: as §4

125I-FGF1 = assay: protection of 125I-FGF1 against proteolytic degradation by trypsin (gel, autoradiography); type: biochemical; conditions: FIG. 5A, 37° C.
Method: Proteolytic digestion was carried out at 37° C. and the samples were separated by 18% polyacrylamide gel electrophoresis. The gels are dried and autoradiographed. The first track contains the 125I-FGF1 on its own.

125I-FGF2 = assay: protection of 125I-FGF2 against proteolytic degradation by trypsin (gel, autoradiography); type: biochemical; conditions: FIG. 5B, 37° C.
Source text: The arrangement of the tracks is identical to that presented for the ^125 I-FGF1 in FIG. 5A.

FGF [1] = assay: semi-quantitative evaluation of FGF protection against trypsin (densitometry of radio-labelled FGF); type: biochemical; conditions: FGF + trypsin + polymer; radio-labelled FGF found vs quantity deposited
Method: As described above, a constant quantity of radioactive FGF is incubated under various conditions. After autoradiography of the reaction products, the non degraded quantity of radioactive FGF is quantified by densitometry. The values correspond to the percentage of radio-labelled FGF found compared to the quantity deposited at the start of reaction (Table 5).

FGF [2] = conditions: Tardieu et al. 1992; cited from earlier work
[3] = system: colitis induced by acetic acid; assay: colitis induced by acetic acid; type: in vivo, Sprague Dawley male rats; conditions: for Alteration score: per os twice a day for three days, score 72 hours after acetic acid, mean ± standard error
Method: Groups of 6 Sprague Dawley male rats weighing approximately 200 g are placed in hydric fasting 24 hours before the test. On the day of the test, the animals are anesthetized with pentobarbital (30 mg/kg) by intraperitoneal route. After laparotomy, a colic instillation of 2 ml of 5% acetic acid is performed 2 cm from the caecum. The acetic acid is left in contact for 10 seconds and the colon is then rinsed by 3 ml of saline phosphate buffer (PBS) at pH 7. The wound is then closed. The animals are sacrificed 72 hours later by cervical elongation. The colic alterations are noted on the following scale:
2: superficial necrosis of the mucosa
4: major necrosis of the mucosa with edema
A third group receives sucralfate (marketed under the name of ULCAR Pharmaceutical Laboratories Fabre). The supplier's recommended dose is used (500 mg/kg, i.e. 100 mg per rat) administered orally twice a day for three days.
The mean and the standard error were calculated for each batch of animals. Statistical comparison is performed using White's non parametric test compared to the control.

[4] = system: anastomosis of the rectocolic junction
Method: Male Wistar rats (Wi/Wi, Ico, Iffa Credo France), weighing 250 to 300 g are anesthetized with sodic pentobarbital. A subumbilical midline laparotomy is performed over 1.5 cm. The rectocolic junction is individualized and then sectioned with bistoury. […] The anastomosis is carried out according to a termino-terminal mode in a plane by five separate stitches of polyglactine 910 thread, diameter 6/0. The knots are made of 6 loops. Parietal closure is performed in two planes. The rats are divided into two groups of 7 rats. The experiments are conducted in double blind. Samples are taken on the 2nd, 4th and 7th days after the operation. The quality of the healing is studied by measuring the rupture pressure of the anastomosis, in millimeters of mercury. The colon is sectioned 2 cm on either side of the anastomosis, one end being connected to a self-pushing syringe which injects water at a low, constant rate, and the other end being linked to a manometer. Pressure is recorded continuously on a reel of paper. The rupture pressure is determined by analyzing the tracing.

complement system = conditions: according to Mauzac et al.
trypsin = assay: enzymatic activity of trypsin on substrate S87
Method: The enzymatic activity of trypsin was measured by spectrophotometric absorption of the transformation product of S 87 versus incubation time.

[5] = beta TGF 50 ng + polymer 5000 μg + trypsin 500 μg
[6] = beta TGF 50 ng + polymer 5000 μg, no trypsin
[7] = 10 μg/ml of sulodexide or 20 μg/ml of heparin, CCL39 cells

T1 sequence (P01137 279-390 limits assumed): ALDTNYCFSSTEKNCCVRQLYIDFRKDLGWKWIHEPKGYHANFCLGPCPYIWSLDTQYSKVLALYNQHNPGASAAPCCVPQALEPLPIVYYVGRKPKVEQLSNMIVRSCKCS

% inhibiting activity of the incorporation of tritiated thymidine in CCL64 cells (beta TGF; [5]): 10%
% inhibiting activity of the incorporation of tritiated thymidine in CCL64 cells (beta TGF; [6]): 100%
Molecule: heparin
ED50 of FGF 1 in the presence of polymer (FGF 1; [7]): 0.4 ng/mL
potentialization of the biological activity of FGF1 (FGF 1; FIG. 2A, 20 μg heparin, 10 μg mesoglycan or 10 μg sulodexide): potentialization
ED50 of FGF 2 in the presence of polymer (FGF 2; [7]): 0.2 ng/mL
potentialization of the biological activity of FGF2 (FGF 2; FIG. 2B, 20 μg heparin, 10 μg mesoglycan or 10 μg sulodexide): potentialization
protective effect against thermal degradation of FGF1 (FGF1): protective effect
protective effect against thermal degradation of FGF2 (FGF2): protective effect
protective effect against proteolytic degradation of 125I-FGF1 (125I-FGF1): protective effect
protective effect against proteolytic degradation of 125I-FGF2 (125I-FGF2): protective effect
PROTECTION (in %) of the FGF (FGF [1]): 100%
protection of FGFs against proteolysis induced by trypsin (FGF [2]): provides protection against proteolysis induced by trypsin

% inhibiting activity of the incorporation of tritiated thymidine in CCL64 cells (beta TGF; [5]): 75%
% inhibiting activity of the incorporation of tritiated thymidine in CCL64 cells (beta TGF; [6]): 100%
Molecule: carboxymethyl dextran benzylamide sulfonate [CMDBS]
Rupture pressure, mean ([4]; DAY 2): 67.28 mm of Hg
Rupture pressure, mean ([4]; DAY 4): 144.8 mm of Hg
increased resistance vs untreated ([4]; Day 4): about 10%
difference between treated and untreated resistances ([4]; Day 7): no longer any difference
Alteration score [3]: 0.70 ± 0.37
reduction of the seriousness of the colic lesions ([3]; p≤0.05): about 75%
anticomplement activity, CH50 (complement system): 1.1 µg
inhibiting power on the activity of trypsin (trypsin): no inhibiting power
trypsin activity on S87 (trypsin; trypsin 10 ug/ml + S87 + 5 μg/ml CMDBS): 100
trypsin activity on S87 (trypsin; trypsin + S87 + 50 μg/ml CMDBS): 100
trypsin activity on S87 (trypsin; trypsin + S87 + 500 μg/ml CMDBS): 100

More lines, now with the values behind:

Molecule: sucralfate [reference compound]
Alteration score [3]: 2.25 ± 0.48
effect on the healing of the ulcers ([3]; rat, in vivo): no significant effect

B1: STBI: trypsin inhibitor originating from soya, from Sigma (protein, UniProt P01070 25-205, looked up)
Trypsin inhibitor A: DFVLDNEGNPLENGGTYYILSDITAFGGIRAAPTGNERCPLTVVQSRNELDKGIGTIISSPYRIRFIAEGHPLSLKFDSFAVIMLCVGIPTEWSVVEDLPEGPAVKIGENKDAMDGWFRLERVSDDEFNNYKLVFCPQQAEDDKCGDIGISIDHDDGTRRLVVSKNKPLVVQFQKLDKESL
trypsin activity on S87 (trypsin; trypsin + S87 + trypsin inhibitor): 0
